In PubChem BioAssay (NCI):
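Values below derive from 48-hour exposures of cells grown in 96-well plates, with endpoints linearly interpolated between the two concentrations bracketing the appropriate inhibition level. TGI is the concentration that stops growth completely.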

What was measured:
Assay in all cases: NCI tumour cell line growth inhibition, 48 h
SK-MEL-2 melanoma = tested on: SK-MEL-2 melanoma
UACC-62 melanoma = tested on: UACC-62 melanoma
SW-620 colon = tested on: SW-620 colon
OVCAR-4 ovarian = tested on: OVCAR-4 ovarian
A549 NSCLC = tested on: A549 NSCLC
LXFL 529 NSCLC = tested on: LXFL 529 NSCLC
SN12C renal = tested on: SN12C renal
HT29 colon = tested on: HT29 colon
ACHN renal = tested on: ACHN renal
KM12 colon = tested on: KM12 colon
HCC-2998 colon = tested on: HCC-2998 colon
RPMI-8226 leukemia = tested on: RPMI-8226 leukemia
DLD-1 colon = tested on: DLD-1 colon
SNB-19 CNS = tested on: SNB-19 CNS
MALME-3M melanoma = tested on: MALME-3M melanoma
COLO 205 colon = tested on: COLO 205 colon
UO-31 renal = tested on: UO-31 renal
SK-OV-3 ovarian = tested on: SK-OV-3 ovarian
M14 melanoma = tested on: M14 melanoma
K-562 leukemia = tested on: K-562 leukemia
NCI-H522 lung = tested on: NCI-H522 lung
UACC-257 melanoma = tested on: UACC-257 melanoma
EKVX NSCLC = tested on: EKVX NSCLC
SK-MEL-28 melanoma = tested on: SK-MEL-28 melanoma
U251 CNS = tested on: U251 CNS
HCT-15 colon = tested on: HCT-15 colon
KM20L2 colon = tested on: KM20L2 colon
SF-295 CNS = tested on: SF-295 CNS
DMS 114 small cell lung = tested on: DMS 114 small cell lung
DMS 273 small cell lung = tested on: DMS 273 small cell lung
SF-268 CNS = tested on: SF-268 CNS
NCI-H226 lung = tested on: NCI-H226 lung
TK-10 renal = tested on: TK-10 renal
HOP-92 NSCLC = tested on: HOP-92 NSCLC
M19-MEL melanoma = tested on: M19-MEL melanoma
OVCAR-3 ovarian = tested on: OVCAR-3 ovarian
OVCAR-8 ovarian = tested on: OVCAR-8 ovarian
NCI-H23 lung = tested on: NCI-H23 lung
XF 498 CNS = tested on: XF 498 CNS
SF-539 CNS = tested on: SF-539 CNS
MOLT-4 leukemia = tested on: MOLT-4 leukemia
A498 renal = tested on: A498 renal
SK-MEL-5 melanoma = tested on: SK-MEL-5 melanoma
SNB-75 CNS = tested on: SNB-75 CNS
HL-60(TB) leukemia = tested on: HL-60(TB) leukemia
IGROV1 ovarian = tested on: IGROV1 ovarian
NCI-H460 lung = tested on: NCI-H460 lung
OVCAR-5 ovarian = tested on: OVCAR-5 ovarian
HOP-62 NSCLC = tested on: HOP-62 NSCLC
CCRF-CEM leukemia = tested on: CCRF-CEM leukemia
CAKI-1 renal = tested on: CAKI-1 renal
HCT-116 colon = tested on: HCT-116 colon
T-47D breast = tested on: T-47D breast
BT-549 breast = tested on: BT-549 breast
MDA-MB-435 = tested on: MDA-MB-435
MCF7 breast = tested on: MCF7 breast
786-0 renal = tested on: 786-0 renal
DU-145 prostate = tested on: DU-145 prostate
MDA-MB-231 breast = tested on: MDA-MB-231 breast
RXF 393 renal = tested on: RXF 393 renal
SR leukemia = tested on: SR leukemia
PC-3 prostate = tested on: PC-3 prostate
LOX IMVI melanoma = tested on: LOX IMVI melanoma
MDA-N = tested on: MDA-N
NCI/ADR-RES ovarian = tested on: NCI/ADR-RES ovarian
HS 578T breast = tested on: HS 578T breast

Measured: TGI

CC(C)OP(=O)(OC(C)C)c1nc(-c2ccccc2)n(-c2ccc([N+](=O)[O-])cc2)n1
not listed: T-47D breast | BT-549 breast | MDA-MB-435 | MCF7 breast | 786-0 renal | DU-145 prostate | MDA-MB-231 breast | RXF 393 renal | SR leukemia | PC-3 prostate | LOX IMVI melanoma | MDA-N | NCI/ADR-RES ovarian | HS 578T breast
> 100 µM: all other assays above

O=C(N/N=C/c1c(-c2ccccc2)no[n+]1[O-])N1CCOCC1
45.1 µM: SR leukemia
not listed: LXFL 529 NSCLC | DLD-1 colon | KM20L2 colon | DMS 114 small cell lung | DMS 273 small cell lung | M19-MEL melanoma | XF 498 CNS
> 100 µM: all other assays above
